Here are results for 2 compounds from patent US7615361B2, “Toxicity screening methods” (Ceetox, Inc., priority 2006, dated 2009).

The test system of data set [1] is C32 cells. The data set is described as follows: Intracellular total glutathione (GSH). As to conditions: C32, 24 HR. How it is done: (§1) Intracellular Glutathione (GSH) Levels: Intracellular glutathione levels were determined essentially as described by Griffith (1980) with modifications. At the end of the exposure period, the medium was removed from the cells and metaphosphoric acid (MPA) was added to each well. Plates were then shaken for 5 min at room temperature and stored at −20° C. until needed.
(§2) The sample plates were thawed just prior to analysis and centrifuged at >2000×g for at least 2 min. Sample aliquots were removed and transferred to a clean 96-well plate along with appropriate standard curve controls. Sample pH was neutralized just prior to analysis and each well received an aliquot of sodium phosphate reaction buffer containing EDTA, DTNB, NADPH, and glutathione reductase. The plates were mixed for 15-30 min at room temperature and glutathione content was determined calorimetrically with a Packard Fusion or equivalent reader at 415 nm.
(§3) Intracellular Glutathione (GSH) Levels: The assay is based on the concept that all GSH is oxidized to GSSG by DTNB reagent. Two molecules of GSH are required to make one molecule of GSSG. Total GSH was determined by reducing GSSG to 2GSH with glutathione reductase. A standard curve was prepared with oxidized glutathione (GSSG) over a range of concentrations. These concentrations are then converted to glutathione equivalents (GSX) essentially by multiplying the GSSG standard concentrations by 2. The amount of GSX expressed as pmoles/well was determined using the standard curve and regression analysis.
(§4) The test compound consisted of two parts mixed in a constant ratio of 5:1. The final test mixture consisted of Test mix 1 and Test mix 2, which were received as frozen solutions. The test mixture was tested in a ratio of 5:1 COMP A in five different cell types which included the following: SK-MEL28, human hepatocytes, HUVEC, C32, and NHEM cells. Cells were seeded into 96-well plates and cultured in medium containing 10% bovine serum. Following an equilibration period of 48 hr, the cells were treated with the test compound mix at concentrations of COMP A (μg/mL)=(250:50), (125:25), (25:12.5), (12.5:2.5), (2.5:1.25), (1.25:0.25), and (0.25:0.05) for 24 hr (overnight) at 37° C. in 5% CO2. […] Following an equilibration period of 4 hr, the cells were treated with the test compound mix at concentrations of COMP A (μg/mL)=(250:50), (125:25), (25:12.5), (12.5:2.5), (2.5:1.25), (1.25:0.25), and (0.25:0.05) for 24 hr (overnight) at 37° C. in 5% CO2.
(§5) Experimental Protocol: The test compounds were shipped on dry ice for testing. The compounds were stored frozen at −80° C. until needed. Dosing solutions were prepared in complete culture medium. SK-MEL28, human hepatocytes, HUVEC, C32, and NHEM cells were used as the test systems. Cells were seeded into 96-well plates and allowed to equilibrate for approximately 48 hr. Following the equilibration period the cells were exposed to the test compound mix at concentrations of COMP A (μg/mL)=(250:50), (125:25), (25:12.5), (12.5:2.5), (2.5:1.25), (1.25:0.25), and (0.25:0.05). Solubility was determined by Nephalometry techniques immediately after dosing and prior to harvesting the cells at 24 hr. Following the exposure period, the cells or their supernatant (culture medium) were analyzed for changes in cell proliferation, membrane leakage, mitochondrial function, oxidative stress, and apoptosis. The resultant exposure concentration response curves were graphed and analyzed for determining the concentration that produced a half maximal response or TC50.

In data set [2] the test system is HUVEC. Briefly: Intracellular total glutathione (GSH). The following applies: HUVEC, 24 HR. How it is done: as §1, §2, §3, §4, §5
Data set [3] deals with human hepatocytes. The data set is described as follows: Intracellular total glutathione (GSH). The following applies: 24 HR. The procedure:
as §1, §2, §3, §4, §5

Another data set has as its system SK-MEL28 cells. The data set is described as follows: Membrane lipid peroxidation (8-isoprostane ELISA). How it is done:
(§6) Lipid Peroxidation Measured as 8-Isoprostane (8-ISO): 8-ISO levels were determined using an ELISA. 8-ISO is a member of a family of eicosanoids produced non-enzymatically by random oxidation of tissue phospholipids by oxygen radicals. Therefore, an increase in 8-ISO is an indirect measure of increased lipid peroxidation (Vacchiano and Tempel, 1994). At the end of the exposure period, plates were either analyzed immediately or stored at −80° C. until needed for analysis. Color development, which is […] to the amount of 8-ISO present in the sample, was read on a Packard Fusion or equivalent plate reader at 415 nm.
(§7) Lipid Peroxidation Measured as 8-Isoprostane (8-ISO): Background absorbance produced from Ellman's reagent is subtracted from all wells. Non-specific binding is subtracted from the maximum binding wells to give a corrected maximum binding expressed as Bo. The percent of bound (B) relative to maximum binding capacity (Bo) for all unknown samples and for standards was determined an expressed as (% B/Bo). The % B/Bo for standards was plotted against the log of 8-ISO added to yield the final standard curve. This curve was used to convert % B/Bo to pg 8-ISO/mL of sample.
The test compound consisted of two parts mixed in a constant ratio of 5:1. The final test mixture consisted of Test mix 1 and Test mix 2, which were received as frozen solutions. The test mixture was tested in a ratio of 5:1 COMP A in five different cell types which included the following: SK-MEL28, human hepatocytes, HUVEC, C32, and NHEM cells. Cells were seeded into 96-well plates and cultured in medium containing 10% bovine serum. […]
as §5, with “Solubility was determined by Nephalometry techniques immediately after dosing and prior to harvesting the cells at 24 hr.” left out

The subject of data set [4] is C32 cells. The data set is described as follows: Membrane lipid peroxidation (8-isoprostane ELISA). As to conditions: C32, 24 HR. How it is done:
as §6, §7, §4, §5
(In general: In an ELISA, binding on a coated surface is turned into a signal by an enzyme label.)

Data set [5] deals with HUVEC. The data set is described as follows: Membrane lipid peroxidation (8-isoprostane ELISA). As to conditions: 24 HR. How it is done: as §6, §7, §4, §5
Another data set deals with NHEM cells. The data set is described as follows: Membrane lipid peroxidation (8-isoprostane ELISA). The following applies: 24 HR. The procedure: as §6, §7, §4, §5
Data set [6] relates to human hepatocytes. The data set is described as follows: Membrane lipid peroxidation (8-isoprostane ELISA). As to conditions: 24 HR. How it is done:
as §6, §7, §4, §5

Where [7] appears, read: SK-MEL28, 24 HR, COMP A (LOW) / controls #2.
The mark [8] stands for this setting: SK-MEL28, 72 HR, COMP A (LOW) / controls #2.

Turning to `C=C(C)[C@H]1Cc2c(ccc3c2O[C@@H]2COc4cc(OC)c(OC)cc4[C@@H]2C3=O)O1` [ROTENONE, Rotenone], the “Percent Change in Total GSH” value with C32 cells [1] is listed as 12.9%; in the data set on HUVEC [2], 11.3%; in the data set with human hepatocytes [3], 95.9%. Also, the “Membrane Lipid Peroxidation” value in the data set on SK-MEL28 cells (SK-MEL28, 24 HR) is on record as 3 (3 = Concentration related increase with a maximum value ≧30 pg/mL); with SK-MEL28 cells (setting [7]), 2 (2 = Concentration related increase with maximum values ≧15 pg/mL); in the data set with SK-MEL28 cells (setting [8]) it was 3 (3 = Concentration related increase with a maximum value ≧30 pg/mL); in the data set with C32 cells [4] it was 0; in the data set on HUVEC [5], 1 (1 = Modest increase with maximum values ≦15 pg/mL); with NHEM cells it was 2 (2 = Concentration related increase with maximum values ≧15 pg/mL). In addition, the “Membrane Lipid Peroxidation” value with human hepatocytes [6] was 0.
Turning to `CC[C@@]1(O)C(=O)OCc2c1cc1n(c2=O)Cc2cc3ccccc3nc2-1` [CAMPTOTHECIN, Camptothecin], the figures for the “Percent Change in Total GSH” value in the data set on C32 cells [1], in the data set on HUVEC [2] and with human hepatocytes [3] were −41.1%, −85.8% and −69.9%, respectively. The “Membrane Lipid Peroxidation” value in the data set on SK-MEL28 cells (SK-MEL28, 24 HR) is reported as 0; in the data set with SK-MEL28 cells (setting [7]), 0; in the data set with SK-MEL28 cells (setting [8]), 1 (1 = Modest increase with maximum values ≦15 pg/mL); in the data set on C32 cells [4] it was 0; in the data set on HUVEC [5] it was 2 (2 = Concentration related increase with maximum values ≧15 pg/mL); with NHEM cells, 1 (1 = Modest increase with maximum values ≦15 pg/mL). For the same compound, the “Membrane Lipid Peroxidation” value in the data set with human hepatocytes [6] was 1 (1 = Modest increase with maximum values ≦15 pg/mL).
